row,melting point,Compound
1,159 to 161 °C,Cc1c(CC(=O)O)c2cc(O)c(F)cc2n1C(=O)c1ccccc1
2,61 to 64 °C,COC(=O)c1cc(OCCCCCCCCCCCCOc2ccccc2)ccc1O
3,240 to 242 °C,COc1ccc2c(c1)c(-c1cc3cc(-c4ccccc4)cnc3[nH]1)cn2C
4,247 to 280 °C,COc1cc2nc(N)nc(-c3ccccc3Cl)c2cc1OC
5,132 to 134 °C,COc1nc(C)cnc1N(C(=O)OCC(C)C)S(=O)(=O)c1cccnc1-c1ccc([Si](C)(C)C)cc1
6,108 to 110 °C,COc1ccc(S(N)(=O)=O)cc1C(=O)C(C)Br (stereo not drawn)
7,103 to 104 °C,Cc1nn(-c2ccc(C(F)(F)F)cn2)cc1CCCO
8,103 °C,CC(O)C(CCCc1ccccc1)n1ncc2c(=O)[nH]c(Cc3ccc(F)cc3)nc21 (stereo not drawn)
9,172 to 174 °C,CCCCc1cc(C(N)=O)ccc1OCCCNc1cnn(C(C)C)c(=O)c1Cl
10,60 to 65 °C,CCC(O)CC(O)CC (stereo not drawn)
11,88 to 89 °C,Cc1ccc(C)c(C(CO)c2ccc(C(C)C)cc2)c1O (stereo not drawn)
12,178 to 179 °C,Cc1nc2c(O[C@@H]3c4ccccc4C[C@H]3O)cccn2c1N=O (relative stereo)
13,110 to 114 °C,COC(=O)CCC(C)C1CCC2C3C(O)CC4CC(NC(=O)CNC(=O)OC(C)(C)C)CCC4(C)C3CC(O)C12C (stereo not drawn)
14,132 to 146 °C,CC(C)(C)OC(=O)N[C@H](CCOc1ccc(C#N)cc1)C(=O)O
15,208 °C,COC(=O)c1cc2cc(C=O)c3ccccc3c2s1
16,194 to 196 °C,CCCCOc1cc2c(cc1C=Cc1ccc(C(=O)O)cc1)C(C)(C)CCC2(C)C
17,134 to 135 °C,Fc1ccc2c(c1)nc(/C=C/c1ccccc1)n2-c1ccccn1
18,140 to 142 °C,Cc1nc[nH]c(=O)c1Cc1ccccc1
19,117 to 120 °C,CCCCCCCCCCCCC(Oc1ccc(NS(=O)(=O)CCCC)cc1)C(=O)Nc1c(C)cc(C)c(-c2n[nH]c3cc(C(C)(C)C)nn23)c1C (stereo not drawn)
20,94.5 to 96.5 °C,O=[N+]([O-])c1cc(Cl)c(Cl)cc1N[C@H]1C=C[C@@H](CO)C1
21,102 to 104 °C,CCCCc1nc(O)cc(CCl)n1
22,178 °C,CCCOc1ccccc1-c1nc2nc(N(C)C)ncc2c(=O)[nH]1
23,219 to 221 °C,O=C(NN1CCOCC1)OCCOc1ccc(OCCOC(=O)NN2CCOCC2)cc1
24,89 to 92.5 °C,CCOC(=O)C=C(C(=O)OCC)c1ccc(C(Br)Br)cc1

row,melting point,Compound
1,134 to 136 °C,Cn1c(COc2ccc(CC3SC(=O)N(C(c4ccccc4)(c4ccccc4)c4ccccc4)C3=O)cc2)cc2ccccc21 (stereo not drawn)
2,51 to 53 °C,CCCS(=S)c1cccc(OS(C)(=O)=O)n1 (stereo not drawn)
3,219 to 221 °C,Cc1c(-c2ccccc2)n(-c2c(F)cccc2F)c(-c2ccccc2)cc1=O
4,233 to 236 °C,CCOC(=O)c1cn(-c2ccc(F)cc2F)c2nc(N3CCC(NC(C)=O)C3)c(F)cc2c1=O (stereo not drawn)
5,56 to 58 °C,CCOC(=O)CC(=O)CC(c1ccccc1)c1ccc(OC)c(OC2CCCC2)c1 (stereo not drawn)
6,156 to 157 °C,Cc1cc2nc(NC(=O)C(C)(C)C)[nH]c(=O)c2[nH]1
7,144 to 146 °C,O=C(O)Cc1ccc(-c2ccc(F)cc2)c(F)c1
8,140 to 142 °C,COCOc1cc(F)ccc1-c1cc(-c2cccc(NC(=O)CN3CCCCC3)c2)c(C#N)c(NC(=O)c2ccco2)n1
9,242 to 247 °C,Cc1cc(C)c(C)c(COc2cccc(-c3coc(C(=O)NNC(=O)c4ccc(O)c(C#N)c4)c3-c3ccccc3)c2)c1C
10,147 to 148 °C,CN1CCCCC1CCc1ccccc1NC(=O)c1ccc(N)cc1 (stereo not drawn)
11,209 to 211 °C,O=S1(=O)N=CN(C2CCCCCCC2)c2cc(Cl)ccc21
12,250 to 251 °C,CC(C)(CCc1nnn[nH]1)c1ccc(C(=O)Nc2cn3cc(C(F)(F)F)ccc3n2)cc1
13,80 to 82 °C,Cc1nc(N(C)C=O)sc1C(=O)CBr
14,66 to 68 °C,CCc1noc(-c2ncn(-c3cccc(OC)c3)c2COC)n1
15,202 °C,N#Cc1c(N)nc2ccc(N3CCOCC3)cc2c1NCc1ccccc1
16,158 to 159 °C,CCCCCCOc1ccc(C(=O)Nc2ccccc2Oc2cccc(OCc3nnn[nH]3)c2)cc1
17,250 °C,O=C(CC1=C(n2nc(-c3c(-c4ccccc4)nn4ccccc34)ccc2=O)CCCC1)N1CCN(C(c2ccccc2)(c2ccccc2)c2ccccc2)CC1
18,165 to 167 °C,O=C(O)c1cc(S(=O)(=O)CCO)ccc1[N+](=O)[O-]
19,54 to 55 °C,CC(C)(C)OC(=O)NCCCC(=O)NCCC(=O)OCc1ccccc1
20,175 to 177 °C,CC(=O)Nc1ccc(-c2ccc(C(C)O)o2)cc1 (stereo not drawn)
21,170 to 172 °C,Cc1c(N2CC(F)C(CN)C2)c(F)cc2c(=O)n(N)c(=O)n(C3CC3)c12 (stereo not drawn)
22,248 to 250 °C,Cc1cc(C#N)cc(C)c1Oc1ncnc(Nc2ccc(C#N)cc2)n1
23,115 °C,CCC1CC2C3CC=C4CC(OC(C)=O)CCC4(C)C3CCC2(C)C1C(C)=O (stereo not drawn)
24,169 to 170 °C,Fc1ccc(C2OC(=S)OC2(Cn2cncn2)c2ccc(Cl)cc2Cl)cc1 (stereo not drawn)

row,melting point,Compound
1,316 to 318 °C,CCNc1cc(NS(=O)(=O)c2ccc(C(C)(C)C)cc2)nc(NCC)n1
2,154 to 156 °C,O=C(NCc1ccc(F)cc1)Nc1ccc(CN2C(=O)[C@H]3CCC[C@H]3N(C(=O)CN3C(=O)c4ccccc4C3=O)c3ccccc32)cc1 (relative stereo)
3,158 to 163 °C,CCCc1ccc(COc2ccc3c(c2)CCC(CN2CC(C(=O)O)C2)=C3C)c(OC)c1
4,106 to 108 °C,Cc1nscc1C(=O)NC1CC1
5,109 to 110 °C,C[C@@H](NC(=O)[C@H](Cc1ccc(OC(C)(C)C)cc1)N(C)C(=O)OC(C)(C)C)C(=O)O
6,96 to 97 °C,COc1ccc2cc(C(C)=O)cc(F)c2c1
7,120 to 122 °C,"CC1CN(C(=O)NC(CS)Cc2ccccc2)CC(C)O1 (single isomer, unassigned; (+))"
8,112 to 113 °C,CC(Cc1c[nH]c2ccc(F)cc12)C(=O)O (stereo not drawn)
9,256 to 259 °C,CNC(=O)c1ccc(N2CCN(Cc3cc4c(c(C5CC5)c3)OC(C)C(=O)N4)CC2)cc1 (stereo not drawn)
10,135 °C,O=C1OCCN1c1ccc(F)c([N+](=O)[O-])c1
11,152 to 153 °C,COc1cccc2c1CCN(C)C2CN1CCC(c2ccccc2)C1 (stereo not drawn)
12,117 °C,CC1CN(C(=O)COc2cc(-c3ccccc3)nc3ccccc23)CC(C)O1 (stereo not drawn)
13,96.5 to 97 °C,ClC(Cl)(Cl)c1nc(NCc2ccccc2)nc(C(Cl)(Cl)Cl)n1
14,168 to 170 °C,Cc1ccc(-c2nc(-c3ccc(C)cc3C)nc(-c3cc(C(C)(C)c4ccccc4)c(O)cc3O)n2)c(C)c1
15,154 °C,N#Cc1ccc(C2NC(=O)NC2=O)c(N2CCCC2)c1 (stereo not drawn)
16,192 to 194 °C,N#Cc1ccccc1-c1ccc(CN2C(=O)C3(COc4cc5c(cc43)CCO5)c3ccccc32)cc1 (stereo not drawn)
17,223 to 225 °C,Cc1c(C(=O)O)oc2ccc(Cc3cccnc3)cc12
18,222 °C,CC(C)(C)OC(=O)N1CC=C(C2=C(C#N)C(c3cccc4nonc34)c3c[nH]nc3N2)CC1 (stereo not drawn)
19,145 to 147 °C,COc1ccc2c3c(c(=O)oc2c1OC)CN(CC(C)=O)CC3
20,55 to 63 °C,CC(=O)C(=NO)C(=O)OC(C)(C)C
21,48 to 49 °C,CCOC(=O)c1cc(CC)c2ccc(C(C)C)ccc1-2
22,193 to 195 °C,CCC1(CC)Oc2cc(OC)c(C#N)cc2[C@@H](N2CCCC2=O)[C@@H]1O (relative stereo)
23,84 to 86 °C,CCCC(C(=O)NC)n1cc(C)c(-c2ccccc2)n1 (stereo not drawn)
24,214 °C,CCOC(=O)C1=C(c2ccccc2)Nc2n[nH]cc2C1c1cccc(Cl)c1Cl (stereo not drawn)

row,melting point,Compound
1,262 to 264 °C,CNS(=O)(=O)c1cn(C)c2ccc(OC)cc2c1=O
2,107 °C,CSc1nc(Cl)c(C#N)c(Cl)n1
3,90 °C,O=C(NCc1cccnc1)C1CCCCC1
4,70 to 72 °C,CC1C=CC(=O)OC1=O (stereo not drawn)
5,214 to 217 °C,CCn1ncnc1COc1nn2c(-c3ccccc3F)nncc2c1-c1ccncc1
6,50 to 52 °C,C=CCN(C=CC=C(C#N)C#N)CC=C
7,260 °C,CC1SC(=O)NN=C1c1ccc2c(c1)C(=NN(C)c1ccccc1)C(=O)N2 (stereo not drawn)
8,128 to 130 °C,CCOC(=O)C1=NN(c2ccc(Cl)cc2)C(c2ccc(Cl)cc2)C1 (stereo not drawn)
9,108 to 109 °C,COc1ccc(C2=NN(c3cccc(C(=O)N4CCOCC4)c3)C(=O)C(C)(C)C2)cc1OC
10,123 to 125 °C,O=C(CNC1CCCCC1)Nc1ccc([N+](=O)[O-])cc1
11,128 to 129 °C,c1csc(-c2ncc(COc3ccc(CCCCn4ccnc4)cc3)s2)c1
12,160 to 161 °C,COCCOc1cc(NS(=O)(=O)c2ccccn2)c2[nH]c(C(=O)NCC(CN3CCSCC3)SCc3ccccc3)cc2c1 (stereo not drawn)
13,130 to 133 °C,CC12CC(=NO)C(C)(C)C1C(O)C2 (stereo not drawn)
14,130 to 148 °C,CC(C)(C)OC(=O)Nc1cc(NCCO)c(I)cc1[N+](=O)[O-]
15,127 to 128 °C,N[C@H]1CCN(c2ccc3c(C(=O)NCC4CCCCC4)cccc3n2)C1
16,50 °C,CON(C)S(=O)(=O)c1ccccc1N
17,110 °C,"CCOC(Cc1ccc(OCCN2CCSc3ccccc32)cc1)C(=O)O (single isomer, unassigned; (-))"
18,127 to 129 °C,O=C1c2cc3ccccc3cc2OC12CC2
19,180 to 183 °C,CC(C)c1cccc(C(C)C)c1NC(=O)C(c1ccccc1)n1nnc(C(c2ccccc2)c2ccccc2)n1 (stereo not drawn)
20,124 to 125 °C,Cc1oc(-c2ccccc2)nc1COc1ccc(Cn2cc(CCC(=O)O)cn2)cc1
21,127 °C,CCC(Oc1ccc(C2CCOCC2)cc1)C(=O)O (stereo not drawn)

row,Compound,melting point
1,CNCC(O)c1cccc(Cl)c1 (stereo not drawn),95.5 to 97 °C
2,N#CC[C@@H]1CC[C@@H]2CN(c3noc4ccccc34)CCN2C1 (relative stereo),184 to 186 °C
3,CCCC1CC2=CC(=O)CCC2C2CCC3(C)C(OC(C)=O)CCC3C12 (stereo not drawn),97 to 100 °C
4,CC(CS)C(=O)N(CC(=O)O)C1CCCCC1 (stereo not drawn),158 to 160 °C
5,CN1CC(CCO)N2c3ccccc3Oc3ccccc3C2C1 (stereo not drawn),138 to 139 °C
